Our source for the GI50 and TGI values is PubChem BioAssay (NCI).

Holding throughout (test): DTP human tumour cell line panel, 48 h
Assay [1] concerns MDA-MB-231 breast.
Assay [2] deals with MCF7 breast.
Assay [3] concerns OVCAR-5 ovarian.
In assay [4] the test system is DU-145 prostate.
Assay [5] concerns KM12 colon.
Assay [6] deals with LOX IMVI melanoma.
Assay [7] relates to BT-549 breast.
In assay [8] the test system is SR leukemia.
Assay [9] concerns SK-MEL-28 melanoma.
Assay [10] relates to SF-539 CNS.

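Growth conditions: 96-well plates. Treatment: test compound, 48 hours, 5 concentrations. Analysis: linear interpolation between bracketing concentrations; unreached endpoints set to highest concentration. GI50 marks 50% less growth. TGI marks complete inhibition of growth.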

For the compound `CCCCCCCCCCCCCCCCCC(=O)[O][Sn]([CH2]CCC)([CH2]CCC)[CH2]CCC`, the GI50 is 0.125 µM in [1]; 0.134 µM in assay [2]; 0.137 µM in assay [3]; 0.136 µM in [4]; 0.124 µM in assay [5]; 0.133 µM in [6]. For the same compound, the GI50 was 0.138 µM in [7], 0.0738 µM in assay [8], 0.159 µM in assay [9] and 0.181 µM in [10]. The TGI in assay [1] amounted to 0.361 µM; in [2], 0.267 µM; in assay [3], 0.34 µM; in assay [4], 0.271 µM; in assay [5], 0.266 µM; in assay [6], 0.38 µM. Besides, the TGI in assay [7] amounted to 0.287 µM; in assay [8], 0.388 µM; in [9] it was 0.31 µM; in [10] it was 0.377 µM.
As to `CN(C)c1cc2c(cc1Sc1nc3c(N)nccc3n1CCNCC(C)(C)C)OCO2`, the GI50 was 0.585 µM in assay [1]; 0.311 µM in assay [2]; 1.12 µM in assay [3]; 0.732 µM in assay [4]; 0.305 µM in assay [5]; 0.417 µM in [6]. Also, the GI50 in [7] is 4.22 µM; in assay [8] it was 0.25 µM; in assay [9], 0.621 µM; in assay [10] it was 1.45 µM. For the same compound, the TGI in assay [1] is 17.1 µM; in assay [2] it was 17.9 µM; in [3] it was 28.1 µM; in assay [4] it was 18.5 µM; in assay [5], 2.79 µM; in [6], 4.41 µM. In addition, the TGI amounted to 25 µM in [7], 12.2 µM in assay [8], 15.6 µM in assay [9] and 16.3 µM in assay [10].
For the compound `Cc1cc(N2CCOCC2)nc(N(CCNc2ccnc3cc(Cl)ccc23)Cc2ccco2)n1`, the GI50 is 3.16 µM in [1]; 3.15 µM in [2]; 9.4 µM in assay [3]; 6.85 µM in assay [4]; 4.81 µM in assay [5]; 2.03 µM in [6]. Moreover, the values for the GI50 in assay [7], in assay [9] and in [10] were 2.8 µM, 2.69 µM and 1.95 µM, respectively. The TGI was found to be 13.4 µM in assay [1]; 18.9 µM in assay [2]; 44.6 µM in assay [3]; 26.5 µM in [4]; 53.5 µM in [5]; 4.91 µM in assay [6]. Moreover, the figures for the TGI in assay [7], in assay [9] and in assay [10] were 8.69 µM, 7.67 µM and 4.41 µM, respectively.
For `COc1ccc(C2=C(Br)C(=O)OC2)cc1Cl`, the GI50 is 24.7 µM in [1]; 29.6 µM in assay [2]; 51.2 µM in [3]; 20.8 µM in [4]; 23.6 µM in assay [5]; 18.9 µM in [6]. Moreover, the GI50 in assay [7] is 22.7 µM; in assay [8], 22.1 µM; in [9] it was 30.9 µM; in [10] it was 15.2 µM. Besides, the total growth inhibition concentration (TGI) in assay [1] is 69.9 µM; in assay [2], > 93 µM; in assay [3], > 100 µM; in assay [4] it was 88.9 µM; in [5], > 84.4 µM; in assay [6], 46.5 µM. Besides, the TGI is 64.7 µM in assay [7], > 100 µM in assay [8], > 93.1 µM in assay [9] and 39.8 µM in [10].
Take `Oc1c(Cl)cc(C(c2cc(Cl)c(O)c(Cl)c2)C(c2cc(Cl)c(O)c(Cl)c2)c2cc(Cl)c(O)c(Cl)c2)cc1Cl`: the GI50 in assay [1] is 6.22 µM; in assay [2], 3.18 µM; in assay [3] it was 12.3 µM; in assay [4], 3.63 µM; in assay [5], 2.85 µM; in assay [7], 3.23 µM. The GI50 in assay [9] was 5.27 µM; in assay [10] it was 5.33 µM. Moreover, the TGI was determined as 26.4 µM in [1]; 15.8 µM in assay [2]; 24.8 µM in assay [3]; 14.1 µM in assay [4]; 11.8 µM in assay [5]; 36.9 µM in assay [7]. For the same compound, the results for the TGI in assay [9] and in assay [10] were 54.3 µM and 20.4 µM, respectively.
`O=C1C(=O)c2ccccc2C=C1[N+](=O)[O-]`: the TGI is 66.5 µM in assay [1]; 78.9 µM in assay [2]; > 100 µM in assay [3]; > 100 µM in assay [4]; > 100 µM in assay [5]; > 100 µM in [6]. In addition, the TGI in assay [7], in assay [8], in assay [9] and in assay [10] was > 100 µM throughout.
With `Oc1ccc(Cl)cc1Cc1cc(Cl)cc(Cc2cc(Cl)ccc2O)c1O`, the TGI worked out at 8.83 µM in assay [1]; 6.98 µM in assay [2]; 12.2 µM in assay [3]; 13 µM in assay [4]; 10.5 µM in assay [5]; 9.82 µM in [6]. In addition, the TGI in assay [7] amounted to 9.61 µM; in assay [8], 11.6 µM; in [9], 14.6 µM; in assay [10], 4.37 µM.
Consider `NC(=O)c1ncn(C2OC(CO)C(O)C2O)n1` (configuration not stated), for which the GI50 was > 100 µM in assay [1]; 36.4 µM in assay [2]; > 100 µM in [3]; 39.6 µM in assay [4]; > 100 µM in [5]; 53.6 µM in assay [6]. Also, the GI50 in assay [7], in assay [8] and in assay [9] was > 100 µM in each case. Also, the TGI in assay [1], in assay [2], in assay [3], in [4], in assay [5] and in assay [6] was > 100 µM each time. Also, the TGI in [7], in assay [8] and in assay [9] was > 100 µM throughout.

Broadly, the GI50 is the concentration giving 50% growth inhibition. What is called TGI is the concentration at which net growth stops. Low readings indicate more potent growth arrest, high ones less potent growth arrest.
